As usually defined, the IC50 is the concentration at which inhibition is half-maximal. A low value points to inhibition by little substance.

For 27 molecules, IC50 results are on record in patent publication US10472358B2, “1H-pyrrolo[2,3-c]pyridin-7(6H)-ones and pyrazolo[3,4-c]pyridin-7(6H)-ones as inhibitors of BET proteins” (Incyte Corporation, priority 2014, dated 2019).

The subject of one experiment is KMS.12.BM cells. Put plainly: KMS.12.BM cell viability assay (Cell Titer-GLO, ATP quantitation). In kind it is cell-based. The conditions noted are these: KMS-12-BM, 72 h; human myeloma cells, 3 days, concentration required for 50% cell death. As for the experimental part:
Example B1: KMS.12.BM Cell Viability Assay
KMS.12.BM cell line (human myeloma) was purchased from JCRB (Osaka, Japan) and maintained in RPMI with 10% FBS culture medium. To measure the cytotoxic activity of the compounds through ATP quantitation, the KMS.12.BM cells are plated in the RPMI culture medium at 5000 cells/well/per 100 μL into a 96-well polystyrene clear black tissue culture plate (Greiner-bio-one through VWR, NJ), in the presence or absence of a concentration range of test compounds. After 3 days, […] Cell Titer-GLO Luminescent (Promega, Madison, Wis.) cell culture agent is added to each well for 10 minutes at room temperature to stabilize the luminescent signal. This determines the number of viable cells in culture based on quantitation of the ATP present, which signals the presence of metabolically active cells. Luminescence is measured with the Top Count 384 (Packard Bioscience through Perkin Elmer, Boston, Mass.). Compound inhibition is determined relative to cells cultured with no drug and the IC50 is reported as the compound concentration required for 50% cell death.
For orientation: Cellular ATP, detected with luciferase, serves as a proxy for viable cell number.
In the case of `CC(C)C1Oc2c(-c3cn(C)c(=O)c4[nH]ccc34)cc(S(C)(=O)=O)cc2N(CC2CC2)C1=O` (stereo not drawn) [Example 53, 4-(cyclopropylmethyl)-2-isopropyl-8-(6-methyl-7-oxo-7-dihydro-1H-pyrrolo[2,3-c]pyridin-4-yl)-6-(methylsulfonyl)-2H-1,4-benzoxazin-3(4H)-one], the IC50 was at most 1 µM. With `COc1cc(-c2cn(C)c(=O)c3[nH]ccc23)c2c(c1)N(C(C)C)C(=O)C(C(C)C)O2` (stereo not drawn) [Example 16, 2,4-diisopropyl-6-methoxy-8-(6-methyl-7-oxo-6,7-dihydro-1H-pyrrolo[2,3-c]pyridin-4-yl)-2H-1,4-benzoxazin-3(4H)-one], the IC50 is at most 1 µM. The molecule `CC(C)S(=O)(=O)c1cc(-c2cn(C)c(=O)c3[nH]ccc23)c2c(c1)N(C)C(=O)C(C)(C)O2` [Example 77, 6-(isopropylsulfonyl)-2,2,4-trimethyl-8-(6-methyl-7-oxo-6,7-dihydro-1H-pyrrolo[2,3-c]pyridin-4-yl)-2H-1,4-benzoxazin-3(4H)-one] returned an IC50 of at most 1 µM.

For `CCC1Oc2c(-c3cn(C)c(=O)c4[nH]ccc34)cccc2N(C)C1=O` (stereo not drawn) [Example 8, 2-ethyl-4-methyl-8-(6-methyl-7-oxo-6,7-dihydro-1H-pyrrolo[2,3-c]pyridin-4-yl)-2H-1,4-benzoxazin-3(4H)-one], the IC50 was at most 1 µM.

The molecule `Cn1cc(-c2cc(S(C)(=O)=O)cc3c2OC(CCO)C(=O)N3)c2cc[nH]c2c1=O` (stereo not drawn) [Example 48, 2-(2-hydroxyethyl)-8-(6-methyl-7-oxo-6,7-dihydro-1H-pyrrolo[2,3-c]pyridin-4-yl)-6-(methylsulfonyl)-2H-1,4-benzoxazin-3(4H)-one] displayed an IC50 of at most 1 µM. `COc1cc2c(c(-c3cn(C)c(=O)c4[nH]ncc34)c1)OC(C1CCCC1)C(=O)N2` (single isomer, unassigned) [Example 42A, 2-cyclopentyl-6-methoxy-8-(6-methyl-7-oxo-6,7-dihydro-1H-pyrazolo[3,4-c]pyridin-4-yl)-2H-1,4-benzoxazin-3(4H)-one] had an IC50 of at most 1 µM. As for `CC(C)C1Oc2c(cc([N+](=O)[O-])cc2-c2cn(C)c(=O)c3[nH]ccc23)NC1=O` (stereo not drawn) [Example 21, 2-isopropyl-8-(6-methyl-7-oxo-6,7-dihydro-1H-pyrrolo[2,3-c]pyridin-4-yl)-6-nitro-2H-1,4-benzoxazin-3(4H)-one], the IC50 was at most 1 µM. In turn, `CC(C)[C@@H]1Nc2c(cc(S(C)(=O)=O)cc2-c2cn(C)c(=O)c3[nH]ccc23)NC1=O` [Example 60, (3S)-3-isopropyl-5-(6-methyl-7-oxo-6,7-dihydro-1H-pyrrolo[2,3-c]pyridin-4-yl)-7-(methylsulfonyl)-3,4-dihydroquinoxalin-2(1H)-one] gave a half-inhibitory concentration (IC50) of at most 1 µM. As to `CCS(=O)(=O)c1cc(-c2cn(C)c(=O)c3[nH]ccc23)c2c(c1)N(C)C(=O)C(C(C)C)O2` (stereo not drawn) [Example 55, 6-(ethylsulfonyl)-2-isopropyl-4-methyl-8-(6-methyl-7-oxo-6,7-dihydro-1H-pyrrolo[2,3-c]pyridin-4-yl)-2H-1,4-benzoxazin-3(4H)-one], the IC50 was at most 1 µM.

Take `Cn1cc(-c2cc(S(C)(=O)=O)cc3c2OC2(CC2)C(=O)N3)c2cn[nH]c2c1=O` [Example 65, 8-(6-methyl-7-oxo-6,7-dihydro-1H-pyrazolo[3,4-c]pyridin-4-yl)-6-(methylsulfonyl)spiro[1,4-benzoxazine-2,1′-cyclopropan]-3(4H)-one]: the IC50 is at most 1 µM. Molecule `Cn1cc(-c2cc(S(C)(=O)=O)cc3c2NC(C)(C)C(=O)N3)c2cc[nH]c2c1=O` [Example 58, 3,3-dimethyl-5-(6-methyl-7-oxo-6,7-dihydro-1H-pyrrolo[2,3-c]pyridin-4-yl)-7-(methylsulfonyl)-3,4-dihydroquinoxalin-2(1H)-one] displayed a half-inhibitory concentration (IC50) of at most 1 µM. Take `CNS(=O)(=O)c1cc2c(c(-c3cn(C)c(=O)c4[nH]ccc34)c1)OC(C(C)C)C(=O)N2` (stereo not drawn) [Example 68, 2-isopropyl-N-methyl-8-(6-methyl-7-oxo-6,7-dihydro-1H-pyrrolo[2,3-c]pyridin-4-yl)-3-oxo-3,4-dihydro-2H-1,4-benzoxazine-6-sulfonamide]: the IC50 was at most 1 µM.

In turn, `COc1cc2c(c(-c3cn(C)c(=O)c4[nH]ccc34)c1)OC(C(C)C)C(=O)N2` (stereo not drawn) [Example 9, 2-isopropyl-6-methoxy-8-(6-methyl-7-oxo-6,7-dihydro-1H-pyrrolo[2,3-c]pyridin-4-yl)-2H-1,4-benzoxazin-3(4H)-one] showed an IC50 of at most 1 µM. Same read-out and setting: for `COCc1cc2c(c(-c3cn(C)c(=O)c4[nH]ccc34)c1)OC(C(C)C)C(=O)N2` (stereo not drawn) [Example 37, 2-isopropyl-6-(methoxymethyl)-8-(6-methyl-7-oxo-6,7-dihydro-1H-pyrrolo[2,3-c]pyridin-4-yl)-2H-1,4-benzoxazin-3(4H)-one] the value was at most 1 µM. Take `CC(C)C1Oc2c(-c3cn(C)c(=O)c4[nH]ccc34)cc(C#N)cc2N(C)C1=O` (stereo not drawn) [Example 18, 2-isopropyl-4-methyl-8-(6-methyl-7-oxo-6,7-dihydro-1H-pyrrolo[2,3-c]pyridin-4-yl)-3-oxo-3,4-dihydro-2H-1,4-benzoxazine-6-carbonitrile]: the IC50 is at most 1 µM. For `COc1cc(-c2cn(C)c(=O)c3[nH]ccc23)c2c(c1)N(C)C(=O)C(C(C)C)O2` (stereo not drawn) [Example 10, 2-isopropyl-6-methoxy-4-methyl-8-(6-methyl-7-oxo-6,7-dihydro-1H-pyrrolo[2,3-c]pyridin-4-yl)-2H-1,4-benzoxazin-3(4H)-one], the IC50 was at most 1 µM. The same measure, in the same setting: in the case of `CC(C)S(=O)(=O)c1cc2c(c(-c3cn(C)c(=O)c4[nH]ccc34)c1)OC(C)(C)C(=O)N2` [Example 79, 6-(isopropylsulfonyl)-2,2-dimethyl-8-(6-methyl-7-oxo-6,7-dihydro-1H-pyrrolo[2,3-c]pyridin-4-yl)-2H-1,4-benzoxazin-3(4H)-one] it was at most 1 µM; in that of `CN1C(=O)C2(CC2)Oc2c(-c3cn(C)c(=O)c4[nH]ccc34)cc(S(C)(=O)=O)cc21` [Example 63, 4-methyl-8-(6-methyl-7-oxo-6,7-dihydro-1H-pyrrolo[2,3-c]pyridin-4-yl)-6-(methylsulfonyl)spiro[1,4-benzoxazine-2,1′-cyclopropan]-3(4H)-one], at most 1 µM; in that of `COc1cc2c(c(-c3cn(C)c(=O)c4[nH]ccc34)c1)OC(c1ccccc1)C(=O)N2` (stereo not drawn) [Example 24, 6-methoxy-8-(6-methyl-7-oxo-6,7-dihydro-1H-pyrrolo[2,3-c]pyridin-4-yl)-2-phenyl-2H-1,4-benzoxazin-3(4H)-one], at most 1 µM. `COc1cc(-c2cn(C)c(=O)c3[nH]ccc23)c2c(c1)N(CC(=O)N1CCN(C)CC1)C(=O)C(C(C)C)O2` (stereo not drawn) [Example 14, 2-isopropyl-6-methoxy-8-(6-methyl-7-oxo-6,7-dihydro-1H-pyrrolo[2,3-c]pyridin-4-yl)-4-[2-(4-methylpiperazin-1-yl)-2-oxoethyl]-2H-1,4-benzoxazin-3(4H)-one] returned an IC50 of at most 1 µM.

`CC(C)C1Oc2c(cc(S(=O)(=O)N(C)C)cc2-c2cn(C)c(=O)c3[nH]ccc23)NC1=O` (stereo not drawn) [Example 67, 2-isopropyl-N,N-dimethyl-8-(6-methyl-7-oxo-6,7-dihydro-1H-pyrrolo[2,3-c]pyridin-4-yl)-3-oxo-3,4-dihydro-2H-1,4-benzoxazine-6-sulfonamide]: the IC50 is at most 1 µM. For `CC(O)c1cc2c(c(-c3cn(C)c(=O)c4[nH]ccc34)c1)OC(C)(C)C(=O)N2` (stereo not drawn) [Example 81, 6-(1-hydroxyethyl)-2,2-dimethyl-8-(6-methyl-7-oxo-6,7-dihydro-1H-pyrrolo[2,3-c]pyridin-4-yl)-2H-1,4-benzoxazin-3(4H)-one], the IC50 was at most 1 µM. `COc1cc2c(c(-c3cn(C)c(=O)c4[nH]ccc34)c1)OC(c1ccccc1)C(=O)N2` (single isomer, unassigned) [Example 24A, 6-methoxy-8-(6-methyl-7-oxo-6,7-dihydro-1H-pyrrolo[2,3-c]pyridin-4-yl)-2-phenyl-2H-1,4-benzoxazin-3(4H)-one]: the IC50 was at most 1 µM. As for `COc1cc2c(c(-c3cn(C)c(=O)c4[nH]ccc34)c1)OC(C)(C)C(=O)N2` [Example 27, 6-methoxy-2,2-dimethyl-8-(6-methyl-7-oxo-6,7-dihydro-1H-pyrrolo[2,3-c]pyridin-4-yl)-2H-1,4-benzoxazin-3(4H)-one], the IC50 was at most 1 µM. The molecule `CC(C)C1Oc2c(-c3cn(C)c(=O)c4[nH]ccc34)cc(S(C)(=O)=O)cc2N(C)C1=O` (single isomer, unassigned) [Example 47A, 2-isopropyl-4-methyl-8-(6-methyl-7-oxo-6,7-dihydro-1H-pyrrolo[2,3-c]pyridin-4-yl)-6-(methylsulfonyl)-2H-1,4-benzoxazin-3(4H)-one] had an IC50 of at most 1 µM.

The experiment is the same for the next values; noted with them: human myeloma cells, 3 days, concentration required for 50% cell death.
As for `CC(O)c1cc(-c2cn(C)c(=O)c3[nH]ccc23)c2c(c1)N(C)C(=O)C(C)(C)O2` (single isomer, unassigned) [Example 83B, 6-(1-hydroxyethyl)-2,2,4-trimethyl-8-(6-methyl-7-oxo-6,7-dihydro-1H-pyrrolo[2,3-c]pyridin-4-yl)-2H-1,4-benzoxazin-3(4H)-one], the IC50 is at most 1 µM. Consider `CC(C)C1Oc2c(-c3cn(C)c(=O)c4[nH]ccc34)cc(S(C)(=O)=O)cc2N(C)C1=O` (single isomer, unassigned) [Example 47B, 2-isopropyl-4-methyl-8-(6-methyl-7-oxo-6,7-dihydro-1H-pyrrolo[2,3-c]pyridin-4-yl)-6-(methylsulfonyl)-2H-1,4-benzoxazin-3(4H)-one], for which the IC50 was at most 1 µM.
